Measurements published in patent US20230330093A1, “APPLICATION OF NITROGEN-CONTAINING SATURATED HETEROCYCLIC COMPOUND” (SHANGHAI PHARMACEUTICALS HOLDING CO., LTD., priority 2020, published 2023).
Where “and” joins values, the source holds several entries; their conditions need not be identical. Equal values may be shown once.

Key:
Assay type in all cases: in vivo, Macaca mulatta (Rhesus Macaque)
[1] = tested on: rhesus monkeys with spontaneous chronic kidney disease; assay: Effect on BUN, 8-week administration
Protocol: In the trial, animals were brought in three stages. […] Glomerular filtration rate […]: creatinine (Cr-P), urea nitrogen (BUN) and cystatin (CysC) were detected, and the eGFR value was obtained by calculation. It was performed once before the administration and once every two weeks after the administration. […] ELISA kit was used for NT-proBNP test. [table]

[2] = tested on: rhesus monkeys with spontaneous chronic kidney disease; assay: Effect on NT-proBNP (ELISA), 8-week administration
Excerpt: In the trial, animals were brought in three stages. […] ELISA kit was used for NT-proBNP test. [table]

[3] = tested on: rhesus monkeys with spontaneous chronic kidney disease; assay: Effect on blood pressure (SBP, DBP, MBP, HR) after anesthesia, 8-week administration; conditions: for DBP reduced by on average, compared with the baseline / SBP reduced by on average, compared with the baseline: after W8 administration
Excerpt: In the trial, animals were brought in three stages.
Route of administration: Oral administration.
After anesthesia, the animal was placed in a supine position. The left upper arm was shaved clean, and a suitable size cuff was tied according to the standard. The blood oxygen probe was clamped on the animal's finger or toe (except for the left hand), and the red light-sensitive surface was on the side of the finger pad. The blood pressure of the animal was continuously measured for 3 times in the automatic mode with an interval of 1 min. If the difference of DBP, SBP and MBP of blood pressure measured more than three times was not significant (the difference between the highest value and the lowest value was less than 15 mmHg), the measurement was completed.
Testing equipment: GE B40i electrophysiological monitor.
See Table 16 for the effects of administration of each administration group on blood pressure. The blood pressure test of primates required anesthesia, so it was necessary to control the variability of heart rate at various time points to make statistics.

[4] = 1 mg/kg qd (n = 5), 4 weeks, mean
[5] = 1 mg/kg qd (n = 5), 8 weeks, mean
[6] = 1 mg/kg qd (n=5), p<0.05 vs placebo
[7] = 2 mg/kg qd (n = 5), 4 weeks, mean
[8] = 2 mg/kg qd (n = 5), 8 weeks, mean
[9] = 2 mg/kg qd (n=5), P<0.01 vs placebo
[10] = 5 mg/kg qd (n = 6), 8 weeks, mean

**Q.** COC(=O)NCCCn1nc([C@@H](C)N(C(=O)[C@H]2CNCCO2)C2CC2)c2ccc(C)nc21.O=C(O)C[C@H](O)C(=O)O [malate of compound of Formula I] was tested. Which BUN ([1]; 1 mg/kg (n = 5), Baseline2, single animals and Mean ± SD) did it give?
**A.** 35.1 mg/dL and 32.4 mg/dL and 19.3 mg/dL and 39.8 mg/dL and 40.8 mg/dL

**Q.** What about the BUN ([1]; 1 mg/kg (n = 5), Baseline2, single animals and Mean ± SD, mean) of the same compound?
**A.** 33.5 ± 8.6 mg/dL

**Q.** And the BUN ([1]; 2 mg/kg (n = 5), 4 weeks)?
**A.** 42.7 mg/dL and 37.1 mg/dL and 22.9 mg/dL and 41.6 mg/dL and 30.4 mg/dL

**Q.** What about the BUN ([1]; 2 mg/kg (n = 5), 4 weeks, mean) of the same compound?
**A.** 34.9 ± 8.3 mg/dL

**Q.** What about the BUN ([1]; 2 mg/kg (n = 5), Baseline2, single animals and Mean ± SD) of the same compound?
**A.** 37.5 mg/dL and 24.2 mg/dL and 18.7 mg/dL and 42.1 mg/dL and 25.4 mg/dL

**Q.** What about the BUN ([1]; 2 mg/kg (n = 5), Baseline2, single animals and Mean ± SD, mean) of the same compound?
**A.** 29.6 ± 9.8 mg/dL

**Q.** What about the BUN ([1]; 5 mg/kg (n = 6), Baseline2, single animals and Mean ± SD) of the same compound?
**A.** 18.6 mg/dL and 37.3 mg/dL and 41.3 mg/dL and 77.3 mg/dL and 18.1 mg/dL and 81.2 mg/dL

**Q.** What about the BUN ([1]; 5 mg/kg (n = 6), Baseline2, single animals and Mean ± SD, mean) of the same compound?
**A.** 45.6 ± 27.7 mg/dL

**Q.** And the NT-proBNP ([2]; 1 mg/kg (n = 5), Baseline, single animals and Mean ± SD)?
**A.** 88 pg/mL and 299 pg/mL and 127 pg/mL and 203 pg/mL and 44 pg/mL

**Q.** And the NT-proBNP ([2]; 1 mg/kg (n = 5), Baseline, single animals and Mean ± SD, mean)?
**A.** 152 ± 101 pg/mL

**Q.** What about the NT-proBNP ([2]; 2 mg/kg (n = 5), Baseline, single animals and Mean ± SD) of the same compound?
**A.** 43 pg/mL and 155 pg/mL and 335 pg/mL and 46 pg/mL and 250 pg/mL

**Q.** What about the NT-proBNP ([2]; 2 mg/kg (n = 5), Baseline, single animals and Mean ± SD, mean) of the same compound?
**A.** 166 ± 127 pg/mL

**Q.** And the NT-proBNP ([2]; 5 mg/kg (n = 6), 8 weeks)?
**A.** 261 pg/mL and 146 pg/mL and 250 pg/mL and 197 pg/mL and 180 pg/mL

**Q.** And the NT-proBNP ([2]; 5 mg/kg (n = 6), 8 weeks, mean)?
**A.** 231 ± 73 pg/mL

**Q.** And the NT-proBNP ([2]; 5 mg/kg (n = 6), Baseline, single animals and Mean ± SD)?
**A.** 312 pg/mL and 88 pg/mL and 211 pg/mL and 432 pg/mL and 177 pg/mL and 162 pg/mL

**Q.** What about the NT-proBNP ([2]; 5 mg/kg (n = 6), Baseline, single animals and Mean ± SD, mean) of the same compound?
**A.** 230 ± 123 pg/mL

**Q.** What about the DBP ([3]; 1 mg/kg qd (n = 5), 4 weeks) of the same compound?
**A.** 51 mmHg and 54 mmHg and 65 mmHg

**Q.** What about the SBP ([3]; 1 mg/kg qd (n = 5), 4 weeks) of the same compound?
**A.** 104 mmHg and 109 mmHg and 124 mmHg

**Q.** And the DBP [3, 4]?
**A.** 61 ± 12 mmHg

**Q.** And the SBP [3, 4]?
**A.** 118 ± 17 mmHg

**Q.** What about the DBP ([3]; 1 mg/kg qd (n = 5), 8 weeks) of the same compound?
**A.** 53 mmHg and 49 mmHg

**Q.** And the SBP ([3]; 1 mg/kg qd (n = 5), 8 weeks)?
**A.** 94 mmHg and 89 mmHg and 114 mmHg

**Q.** And the DBP [3, 5]?
**A.** 60 ± 12 mmHg

**Q.** And the SBP [3, 5]?
**A.** 111 ± 20 mmHg

**Q.** What about the DBP ([3]; 1 mg/kg qd (n = 5), Baseline) of the same compound?
**A.** 54 mmHg and 56 mmHg and 60 mmHg and 59 mmHg and 70 mmHg

**Q.** What about the DBP ([3]; 1 mg/kg qd (n = 5), Baseline, mean) of the same compound?
**A.** 60 ± 6 mmHg

**Q.** And the SBP ([3]; 1 mg/kg qd (n = 5), Baseline, single animals and Mean ± SD)?
**A.** 101 mmHg and 105 mmHg and 125 mmHg and 121 mmHg and 129 mmHg

**Q.** What about the SBP ([3]; 1 mg/kg qd (n = 5), Baseline, single animals and Mean ± SD, mean) of the same compound?
**A.** 116 ± 13 mmHg

**Q.** And the “DBP reduced by on average, compared with the baseline” value [3, 6]?
**A.** 5±4 mmHg

**Q.** What about the “SBP reduced by on average, compared with the baseline” value [3, 6] of the same compound?
**A.** 11±4 mmHg

**Q.** What about the DBP ([3]; 2 mg/kg qd (n = 5), 4 weeks) of the same compound?
**A.** 55 mmHg and 83 mmHg and 66 mmHg

**Q.** And the SBP ([3]; 2 mg/kg qd (n = 5), 4 weeks)?
**A.** 110 mmHg and 163 mmHg and 138 mmHg

**Q.** What about the DBP [3, 7] of the same compound?
**A.** 71 ± 11 mmHg

**Q.** What about the SBP [3, 7] of the same compound?
**A.** 140 ± 20 mmHg

**Q.** And the DBP ([3]; 2 mg/kg qd (n = 5), 8 weeks)?
**A.** 52 mmHg and 70 mmHg and 62 mmHg and 73 mmHg

**Q.** What about the SBP ([3]; 2 mg/kg qd (n = 5), 8 weeks) of the same compound?
**A.** 102 mmHg and 160 mmHg and 121 mmHg and 133 mmHg

**Q.** What about the DBP [3, 8] of the same compound?
**A.** 64 ± 8 mmHg

**Q.** And the SBP [3, 8]?
**A.** 128 ± 21 mmHg

**Q.** And the DBP ([3]; 2 mg/kg qd (n = 5), Baseline)?
**A.** 58 mmHg and 56 mmHg and 78 mmHg and 83 mmHg and 74 mmHg

**Q.** What about the DBP ([3]; 2 mg/kg qd (n = 5), Baseline, mean) of the same compound?
**A.** 70 ± 12 mmHg

**Q.** What about the SBP ([3]; 2 mg/kg qd (n = 5), Baseline, single animals and Mean ± SD) of the same compound?
**A.** 126 mmHg and 111 mmHg and 184 mmHg and 143 mmHg and 137 mmHg

**Q.** And the SBP ([3]; 2 mg/kg qd (n = 5), Baseline, single animals and Mean ± SD, mean)?
**A.** 140 ± 27 mmHg

**Q.** What about the “DBP reduced by on average, compared with the baseline” value [3, 9] of the same compound?
**A.** 9±8 mmHg

**Q.** And the “SBP reduced by on average, compared with the baseline” value [3, 9]?
**A.** 19±9 mmHg

**Q.** And the SBP ([3]; 5 mg/kg qd (n = 6), 4 weeks)?
**A.** 136 mmHg and 124 mmHg and 159 mmHg and 144 mmHg and 139 mmHg

**Q.** And the SBP ([3]; 5 mg/kg qd (n = 6), 4 weeks, mean)?
**A.** 138 ± 12 mmHg

**Q.** And the DBP ([3]; 5 mg/kg qd (n = 6), 8 weeks)?
**A.** 57 mmHg and 97 mmHg and 60 mmHg and 59 mmHg

**Q.** And the SBP ([3]; 5 mg/kg qd (n = 6), 8 weeks)?
**A.** 114 mmHg and 161 mmHg and 121 mmHg and 128 mmHg

**Q.** And the DBP [3, 10]?
**A.** 66 ± 15 mmHg

**Q.** And the SBP [3, 10]?
**A.** 129 ± 16 mmHg

**Q.** And the DBP ([3]; 5 mg/kg qd (n = 6), Baseline)?
**A.** 63 mmHg and 105 mmHg and 74 mmHg and 97 mmHg and 70 mmHg and 71 mmHg
